Measurements: ChEMBL document CHEMBL1201862, “PubChem BioAssay data set” (2004)
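96-well plates; 48 h exposure; 5 concentrations. Endpoints by linear interpolation between flanking doses. Not reached: highest tested concentration assigned. Abbreviation: GI50, concentration required for 50% inhibition of growth.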 Calls of active or inactive are those of the source. No stated cut-off is given here; in the data, active = GI50 up to about 1.1 µM and inactive = higher.

Assays:
Assay in all cases: NCI anticancer screen, dose series, 48 h
DU-145 = test system: DU-145
MDA-N = test system: MDA-N
T47D = test system: T47D
SNB-75 = test system: SNB-75
SF-539 = test system: SF-539
A498 = test system: A498
MDA-MB-435 = test system: MDA-MB-435
SK-MEL-5 = test system: SK-MEL-5
HOP-62 = test system: HOP-62
SR = test system: SR
NCI/ADR-RES = test system: NCI/ADR-RES
MCF7 = test system: MCF7
CAKI-1 = test system: CAKI-1
RPMI-8226 = test system: RPMI-8226
HL-60 = test system: HL-60
NCI-H226 = test system: NCI-H226
BT-549 = test system: BT-549
HT-29 = test system: HT-29
RXF 393 = test system: RXF 393
SK-OV-3 = test system: SK-OV-3
Hs-578T = test system: Hs-578T
TK-10 = test system: TK-10
ACHN = test system: ACHN
SNB-19 = test system: SNB-19
SN12C = test system: SN12C
CCRF-CEM = test system: CCRF-CEM
SK-MEL-28 = test system: SK-MEL-28
HCT-15 = test system: HCT-15
SF-295 = test system: SF-295
OVCAR-8 = test system: OVCAR-8
OVCAR-5 = test system: OVCAR-5
NCI-H23 = test system: NCI-H23
M14 = test system: M14
NCI-H460 = test system: NCI-H460
OVCAR-4 = test system: OVCAR-4
UO-31 = test system: UO-31
SK-MEL-2 = test system: SK-MEL-2
COLO 205 = test system: COLO 205
KM12 = test system: KM12
EKVX = test system: EKVX
HOP-92 = test system: HOP-92
UACC-62 = test system: UACC-62
OVCAR-3 = test system: OVCAR-3
HCT-116 = test system: HCT-116
A549 = test system: A549
LOX IMVI = test system: LOX IMVI
PC-3 = test system: PC-3
UACC-257 = test system: UACC-257
K562 = test system: K562
SF-268 = test system: SF-268
SW-620 = test system: SW-620
IGROV-1 = test system: IGROV-1
NCI-H522 = test system: NCI-H522
Malme-3M = test system: Malme-3M
786-0 = test system: 786-0
U-251 = test system: U-251
MOLT-4 = test system: MOLT-4
MDA-MB-231 = test system: MDA-MB-231
HCC 2998 = test system: HCC 2998

With COc1ccc2c(CCNS(=O)(=O)c3ccccc3)c(C(C)=O)[nH]c2c1 the GI50 (DU-145) was > 80.2 µM (inactive), the GI50 (MDA-N) was > 71.3 µM (inactive) and the GI50 (T47D) was > 52.2 µM (inactive). The GI50 (SNB-75) was 52.8 µM (inactive), the GI50 (SF-539) was 82.4 µM (inactive) and the GI50 (A498) was > 62.7 µM (inactive). For the same molecule, the GI50 (MDA-MB-435) was 12.3 µM (inactive), the GI50 (SK-MEL-5) was > 42.8 µM (inactive) and the GI50 (HOP-62) was > 50.6 µM (inactive). The GI50 (SR) was 64.6 µM (inactive), the GI50 (NCI/ADR-RES) was 63.2 µM (inactive) and the GI50 (MCF7) was 51.4 µM (inactive). The GI50 (CAKI-1) was 1 µM (active), the GI50 (RPMI-8226) was > 100 µM (inactive) and the GI50 (HL-60) was > 75.3 µM (inactive). For the same molecule, the GI50 (NCI-H226) was > 100 µM (inactive), the GI50 (BT-549) was 33.8 µM (inactive) and the GI50 (HT-29) was > 46.8 µM (inactive). For the same molecule, the GI50 (RXF 393) was > 100 µM (inactive), the GI50 (SK-OV-3) was > 80.9 µM (inactive) and the GI50 (Hs-578T) was 46 µM (inactive). The GI50 (TK-10) was > 100 µM (inactive), the GI50 (ACHN) was 3.15 µM (inactive) and the GI50 (SNB-19) was 66.7 µM (inactive). For the same molecule, the GI50 (SN12C) was 38.5 µM (inactive), the GI50 (CCRF-CEM) was > 65.2 µM (inactive) and the GI50 (SK-MEL-28) was 63.8 µM (inactive). The GI50 (HCT-15) was greater than 75.2 µM, the GI50 (SF-295) was 80.4 µM (inactive) and the GI50 (OVCAR-8) was > 69.3 µM (inactive). The GI50 (OVCAR-5) was > 88.9 µM (inactive), the GI50 (NCI-H23) was 8.3 µM (inactive) and the GI50 (M14) was > 64.4 µM (inactive). For the same molecule, the GI50 (NCI-H460) was > 100 µM (inactive), the GI50 (OVCAR-4) was 51.6 µM (inactive) and the GI50 (UO-31) was 9.51 µM (inactive). The GI50 (SK-MEL-2) was > 100 µM (inactive), the GI50 (COLO 205) was > 73.6 µM (inactive) and the GI50 (KM12) was 54.2 µM (inactive). The GI50 (EKVX) was > 100 µM (inactive), the GI50 (HOP-92) was > 100 µM (inactive) and the GI50 (UACC-62) was > 58.5 µM (inactive). The GI50 (OVCAR-3) was > 100 µM (inactive), the GI50 (HCT-116) was 45.3 µM (inactive) and the GI50 (A549) was 54.3 µM (inactive). The GI50 (LOX IMVI) was > 68.2 µM (inactive), the GI50 (PC-3) was > 71.9 µM (inactive) and the GI50 (UACC-257) was > 32.4 µM (inactive). For the same molecule, the GI50 (K562) was > 74 µM (inactive), the GI50 (SF-268) was 52.1 µM (inactive) and the GI50 (SW-620) was > 100 µM (inactive). The GI50 (IGROV-1) was 34.4 µM (inactive), the GI50 (NCI-H522) was 20.5 µM (inactive) and the GI50 (Malme-3M) was > 100 µM (inactive). For the same molecule, the GI50 (786-0) was 49.5 µM (inactive), the GI50 (U-251) was > 74.3 µM (inactive) and the GI50 (MOLT-4) was 48.8 µM (inactive). The GI50 (MDA-MB-231) was > 85.5 µM (inactive) and the GI50 (HCC 2998) was > 100 µM (inactive).

For COC(=O)c1c(O)ccc2c1c1c(n2Cc2cc(OC)cc(OC)c2)C(=O)c2ccccc2C1=O, the GI50 (DU-145) was 21 µM (inactive), the GI50 (MDA-N) was 3.85 µM (inactive) and the GI50 (T47D) was 10.9 µM (inactive). For the same molecule, the GI50 (SNB-75) was 14.1 µM (inactive), the GI50 (SF-539) was 11.5 µM (inactive) and the GI50 (A498) was 54.2 µM (inactive). For the same molecule, the GI50 (MDA-MB-435) was 2.67 µM (inactive), the GI50 (SK-MEL-5) was 8.83 µM (inactive) and the GI50 (HOP-62) was 9.29 µM (inactive). The GI50 (SR) was 2.44 µM (inactive), the GI50 (NCI/ADR-RES) was 4.06 µM (inactive) and the GI50 (MCF7) was 4.63 µM (inactive). For the same molecule, the GI50 (CAKI-1) was 18.7 µM (inactive), the GI50 (RPMI-8226) was 2.99 µM (inactive) and the GI50 (HL-60) was 7.5 µM (inactive). The GI50 (NCI-H226) was 14.7 µM (inactive), the GI50 (BT-549) was 6.71 µM (inactive) and the GI50 (HT-29) was 2.44 µM (inactive). The GI50 (RXF 393) was 8.32 µM (inactive), the GI50 (SK-OV-3) was 6.52 µM (inactive) and the GI50 (Hs-578T) was 7.55 µM (inactive). For the same molecule, the GI50 (TK-10) was 13 µM (inactive), the GI50 (ACHN) was 5.04 µM (inactive) and the GI50 (SNB-19) was 24.4 µM (inactive). For the same molecule, the GI50 (SN12C) was 6.03 µM (inactive), the GI50 (CCRF-CEM) was 3.7 µM (inactive) and the GI50 (SK-MEL-28) was 13.7 µM (inactive). The GI50 (HCT-15) was 3.93 µM, the GI50 (SF-295) was 11.4 µM (inactive) and the GI50 (OVCAR-8) was 3.72 µM (inactive). The GI50 (OVCAR-5) was 21 µM (inactive), the GI50 (NCI-H23) was 8.28 µM (inactive) and the GI50 (M14) was 8.13 µM (inactive). The GI50 (NCI-H460) was 3.75 µM (inactive), the GI50 (OVCAR-4) was 9.93 µM (inactive) and the GI50 (UO-31) was 4.56 µM (inactive). The GI50 (SK-MEL-2) was 10.9 µM (inactive), the GI50 (COLO 205) was 1.86 µM (inactive) and the GI50 (KM12) was 3.23 µM (inactive). For the same molecule, the GI50 (EKVX) was 11.6 µM (inactive), the GI50 (HOP-92) was 4.92 µM (inactive) and the GI50 (OVCAR-3) was 7.87 µM (inactive). The GI50 (HCT-116) was 4.74 µM (inactive), the GI50 (A549) was 5.07 µM (inactive) and the GI50 (LOX IMVI) was 8.67 µM (inactive). The GI50 (PC-3) was 4.39 µM (inactive), the GI50 (UACC-257) was 23.9 µM (inactive) and the GI50 (K562) was 5.28 µM (inactive). For the same molecule, the GI50 (SF-268) was 8.32 µM (inactive), the GI50 (SW-620) was 9.51 µM (inactive) and the GI50 (IGROV-1) was 5.06 µM (inactive). For the same molecule, the GI50 (NCI-H522) was 3.03 µM (inactive), the GI50 (Malme-3M) was 6.34 µM (inactive) and the GI50 (786-0) was 7.74 µM (inactive). For the same molecule, the GI50 (U-251) was 8.26 µM (inactive), the GI50 (MOLT-4) was 4.42 µM (inactive) and the GI50 (MDA-MB-231) was 7.13 µM (inactive). For the same molecule, the GI50 (HCC 2998) was 2.72 µM (inactive).
